{
  "source": "patent US20260225982A1",
  "about": "“NEW METHOD FOR OZONOLYSIS AND REDUCTIVE QUENCHING OF OZONIDES” (P2 SCIENCE, INC., priority 2023, published 2026)",
  "origin": "cited, not measured here",
  "key": {"[1]": {"system": "rat"}, "[2]": {"conditions": "species and route not given; given in comparison with oral rat LD50 of glyoxal"}},
  "data": [
    {"smiles": "O=CC=O", "note": "[Glyoxal]", "values": [
      {"measurement": "oral rat LD50", "setting": "[1]; oral", "result": 3300, "unit": "mg/kg"}
    ]},
    {"smiles": "O=CC(=O)O", "note": "[Glyoxylic acid]", "values": [
      {"measurement": "rat LD50", "setting": "[1]; in vivo", "result": 2500, "unit": "mg/kg"}
    ]},
    {"smiles": "[Cl-].[Na+]", "note": "[table salt]", "values": [
      {"measurement": "LD50", "setting": "[2]", "result": 3000, "unit": "mg/kg"}
    ]}
  ]
}
